# According to US9062051B2, “Compounds and pharmaceutical compositions thereof for the treatment of proliferative disorders” (GALAPAGOS NV, priority 2014, dated 2015):
# Entries after “also recorded” stand apart in the source; their conditions may differ.
# How the values were obtained:
# [1] = molecular target: T1, EphA4 (UniProt Ref: P54764) (Homo sapiens, UniProt P54764); experiment: EphA4 assay (Reaction Biology HotSpot radioactive kinase assay); assay type: biochemical; details: EphA4 potency; ATP 10 μM
# T1 construct: purchased Reaction Biology
# Procedure: Inhibition of EphA4 (UniProt Ref: P54764) by a test compound is determined by a commercially available Reaction Biology proprietary nanoliter radioactive HotSpot^SM assay (Reaction Biology, One great valley parkway, Suite 2, Malvern Pa., 19355, USA). The principle of the assay consists of the measurement of incorporated ^33P into poly[Glu:Tyr] (4:1) (0.2 mg/mL) when the substrate is phosphorylated by the enzyme using [^33P]-γ-ATP and ATP (10 μM).
# To determine the IC50, a serial dilution of compound is tested starting from 10 or 3 μM (highest dilution) with a 1/3 dilution.
# [2] = In vivo efficacy in the rat MNX (meniscectomised) model of osteoarthritis, OARSI score; set-up: species or system female Lewis rat; details: versus MNX-vehicle
# Excerpt: In vivo efficacy was studied in a female Lewis meniscectomised rat (MNX) model. The MNX rat model is a well-validated disease model of osteoarthritis (Janusz et al., 2002; Pritzker et al., 2006; Bendele et al., 2001).
# Osteoarthritis is induced by meniscectomy at day 0 (D0) in the right leg of each rat by a transection of the medial collateral ligament and 4 mm of ligament are removed. Internal part of the meniscus is transected vertically into two flaps which are pushed to the front and the back of the synovial cavity. Sham animals undergo only anaesthesia, skin and muscle incision then suture. On day 1, rats are randomly assigned to a treatment group (n=20 per group) according to their body weight, in order to have a homogenous distribution. From D2 to D21, rats are dosed per os (po) once daily (qd) or twice a day (bid) with compounds formulated in methylcellulose (MC) 0.5% or in HPβCD 10% pH3.0.
# After at least 7 days of treatment, blood is sampled at 4 time points post administration: 0, 1, 3 and 6 h (and assuming 24 h is equal to the pre-dose sample), in order to determine steady-state plasma exposure.
# At sacrifice, the right tibia of each rat is collected and processed for histological analysis. After 48 h of fixation in 4% formaldehyde, tibias are decalcified in Osteosoft for 7 days, and cut into 2 half parts prior to embedding face to face in paraffin. Five series of sections are cut at 200 μm intervals, covering about 1.5 mm of the middle part of the bone. One series of slides is stained with Safranin O and light green for morphological evaluation and OARSI scoring. The other series of slides are mounted with DAPI for chondrocyte density measurement.
# The extent of cartilage injury reflecting osteoarthritis in the tibial plateau is evaluated and scored using the OARSI method based on the grading and the staging of cartilage lesion (Pritzker et al., 2006). The OARSI scoring is assessed in a blinded manner by two different readers. For each tibia, one score is attributed as the median of the OARSI score of the 5 sections.
# OARSI score=grade×stage (1 to 24)
# Grade=lesion depth into cartilage area, providing information on arthritis severity.
# Stage=lesion extent over cartilage surface, providing information on arthritis extent.
# For statistical analysis, medians of groups are compared with a stratified Kruskal-Wallis test followed by Dunnett multiple comparison post hoc test.
# Significance levels: *p<0.05; **p<0.01; ***p<0.001 versus MNX-vehicle. Statistical analyses are done on all groups of the studies
# [3] = tested on: MDA-MB-231 cells; experiment: Mouse xenograft model of human triple negative breast cancer (MDA-MB-231), tumorous growth inhibition; assay type: in vivo, Female BALB/c Mice; details: for RTV (Relative Tumor Volume) / T/C (Tumour Vs Control) / TGI (Tumor Growth Inhibition): p.o., qd
# Procedure: Animals (Female BALB/c Mice, Harlan, 51930, 18-20 g) are provided with filtered tap water and standard chow ad libitum and maintained at 22±2° C. in 55±10% humidity on a 12 h light/dark cycle.
# Paclitaxel used as a positive control is formulated by 1/3 dilution of commercial solution (Fresenius kabi, 871WF014/4) in saline.
# The test compounds for po administration are formulated in 0.5% methylcellulose (VWR, ref AX021233).
# MDA-MB-231 cell line is obtained from the ATCC collection (ref HTB-26). The cells are then cultured in RPMI 1640 medium supplemented with […] (Gibco 15140-148) and 1% (v/v) L-Glutamine 200 mM (Gibco 25030-024) at 37° C. in a 5% CO2 incubator.
# 5 million MDA-MB-231 cells/mice in 0.1 mL of 50% Matrigel (BD biosciences, LDEV free 256235)+50% D-PBS 1× (Gibco 14190-086) are injected by subcutaneous route on the upper back of 120 mice. Prior to implantation, mice are anesthetized by intra-peritoneal injection with a 0.1 mL/10 g dose of anaesthetic solution (18 mL NaCl, 0.9%+0.5 mL xylazine, +1.5 mL ketamine. […]
# Body weight, and tumor growth is recorded twice a week during the course of treatment.
# After 26 days the treatment is stopped, in each group half of the mice are euthanized for tissue collection, and the other half is kept for a further 7 days, during which period body weight and tumour sized are measured.
# In sacrificed mice, blood and tumours are collected, analysed, and the effect of the test compounds is compared with controls (vehicle and paclitaxel).
# The values were obtained using the following calculations
# Relative Tumor Volume (RTV):
# Tumor Growth Inhibition (TGI) TGI=1−T/C
# [4] = Plasma exposure at day 7 in the MDA-MB-231 xenograft experiment; assay type: in vivo, Female BALB/c Mice; details: for AUC: female, BALB/c, mouse, plasma, po
# Procedure: 5 million MDA-MB-231 cells/mice in 0.1 mL of 50% Matrigel (BD biosciences, LDEV free 256235)+50% D-PBS 1× (Gibco 14190-086) are injected by subcutaneous route on the upper back of 120 mice. Prior to implantation, mice are anesthetized by intra-peritoneal injection with a 0.1 mL/10 g dose of anaesthetic solution (18 mL NaCl, 0.9%+0.5 mL xylazine, +1.5 mL ketamine. After implantation, tumours are regularly measured with a calliper, and mice with a mean tumour volume of about 200 mm^3 are randomized into groups of 10 individuals, and each group is dosed either with vehicle (p.o.), paclitaxel as control (3×/week, 20 mg/kg i.p.), or a test compound at doses of 3, 10, 30 or 100 mg/kg (p.o., QD, in 10 mL/kg administration volume)
# Even at a 10 fold higher dosing (300 mg/kg, p.o.), Comparative Compound A remains 3.9 fold less exposed than Compound 55.
# T1 sequence (P54764 20-986): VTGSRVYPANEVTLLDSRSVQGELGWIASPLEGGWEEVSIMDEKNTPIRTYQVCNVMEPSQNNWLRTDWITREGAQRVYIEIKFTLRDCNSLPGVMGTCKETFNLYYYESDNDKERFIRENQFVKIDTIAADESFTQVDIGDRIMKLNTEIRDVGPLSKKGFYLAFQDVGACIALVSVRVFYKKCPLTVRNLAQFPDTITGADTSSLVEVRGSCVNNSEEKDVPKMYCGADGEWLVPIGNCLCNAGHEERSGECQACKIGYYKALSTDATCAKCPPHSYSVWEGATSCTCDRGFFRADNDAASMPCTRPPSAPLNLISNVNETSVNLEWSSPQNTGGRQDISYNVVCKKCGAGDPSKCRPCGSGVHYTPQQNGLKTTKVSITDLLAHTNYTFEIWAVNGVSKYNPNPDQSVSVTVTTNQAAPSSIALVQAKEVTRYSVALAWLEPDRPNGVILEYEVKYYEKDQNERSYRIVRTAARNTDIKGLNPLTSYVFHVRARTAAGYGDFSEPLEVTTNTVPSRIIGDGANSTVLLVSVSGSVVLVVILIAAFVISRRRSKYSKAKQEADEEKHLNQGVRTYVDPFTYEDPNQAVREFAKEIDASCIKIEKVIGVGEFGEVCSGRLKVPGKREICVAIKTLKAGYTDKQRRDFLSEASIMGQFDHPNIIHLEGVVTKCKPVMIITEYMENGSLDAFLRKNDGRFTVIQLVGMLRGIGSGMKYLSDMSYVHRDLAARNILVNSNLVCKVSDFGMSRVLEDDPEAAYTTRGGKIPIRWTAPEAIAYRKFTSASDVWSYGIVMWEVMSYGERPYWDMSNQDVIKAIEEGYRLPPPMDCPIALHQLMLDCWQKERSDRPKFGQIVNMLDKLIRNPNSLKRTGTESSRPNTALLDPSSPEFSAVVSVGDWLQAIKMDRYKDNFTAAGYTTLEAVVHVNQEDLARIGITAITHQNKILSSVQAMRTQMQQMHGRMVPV
compound,measurement,setting,value
"Cc1ccc(NC(=O)c2cccc(C(F)(F)F)c2)cc1-c1ccc2c(C(O)CN3CCOCC3)n[nH]c2n1 (stereo not shown) [Compound 2, N-{3-[3-(1-Hydroxy-2-morpholin-4-yl-ethyl)-1H-pyrazolo[3,4-b]pyridin-6-yl]-4-methyl-phenyl}-3-trifluoromethyl-benzamide]",IC50,[1],0.01 to 25 nM
same,OARSI score,[2]; 20 mg/kg,"−17%, p < 0.05"
"Cc1ccc(NC(=O)c2cccc(N(C)C)c2)cc1-c1ccc2c(C(O)CN3CCOCC3)n[nH]c2n1 (stereo not shown) [Compound 6, 3-Dimethylamino-N-{3-[3-(1-hydroxy-2-morpholin-4-yl-ethyl)-1H-pyrazolo[3,4-b]pyridin-6-yl]-4-methyl-phenyl}-benzamide]",OARSI score,[2]; 30 mg/kg,ns
"COc1cc(OC)cc(C(=O)Nc2ccc(C)c(-c3ccc4c(C(C)O)n[nH]c4n3)c2)c1 (stereo not shown) [Compound 9, N-{3-[3-(1-Hydroxy-ethyl)-1H-pyrazolo[3,4-b]pyridin-6-yl]-4-methyl-phenyl}-3,5-dimethoxy-benzamide]",IC50,[1],50 to 100 nM
same,OARSI score,[2]; 30 mg/kg,ns
"CCc1n[nH]c2nc(-c3cc(NC(=O)c4cc(OC)cc(OC)c4)cnc3C)ccc12 [Compound 13, N-[5-(3-Ethyl-1H-pyrazolo[3,4-b]pyridin-6-yl)-6-methyl-pyridin-3-yl]-3,5-dimethoxy-benzamide]",OARSI score,[2]; 30 mg/kg,ns
"COc1cc(OC)cc(C(=O)Nc2ccc(C)c(-c3ccc4c(C5(O)CC5)n[nH]c4n3)c2)c1 [Compound 29, N-{3-[3-(1-Hydroxy-cyclopropyl)-1H-pyrazolo[3,4-b]pyridin-6-yl]-4-methyl-phenyl}-3,5-dimethoxy-benzamide]",IC50,[1],> 100 nM
same,OARSI score,[2]; 15 mg/kg,ns
"Cc1ccc(NC(=O)c2cccc(C(F)(F)F)c2)cc1-c1ccc2c([C@H](C)O)n[nH]c2n1 [Compound 55, N-{3-[3-((S)-1-Hydroxy-ethyl)-1H-pyrazolo[3,4-b]pyridin-6-yl]-4-methyl-phenyl}-3-trifluoromethyl-benzamide]",IC50,[1],25 to 50 nM
same,tumour growth,"[3]; 30 mg/kg p.o., QD, 26 days treatment, MDA-MB-231 xenograft",complete block of tumour growth; also recorded: blocks tumorous growth
same,RTV (Relative Tumor Volume),"[3]; day 26, 30 mg/kg",1.01
same,T/C (Tumour Vs Control),"[3]; day 26, 30 mg/kg",0.14%
same,TGI (Tumor Growth Inhibition),"[3]; day 26, 30 mg/kg",99.86%
same,exposure compared with comparative Compound A,[4]; even if Compound A is administered at a 10 fold higher dose,higher
same,AUC,"[4]; day 7, 30 mg/kg p.o.",31000 ng·h/mL
same,fold higher exposure than the comparison compound A,"[4]; plasma exposure at day 7, both at 30 mg/kg p.o.",> 24 fold
same,OARSI score,[2]; 30 mg/kg,"−23%, p < 0.05"
"Cc1ccc(NC(=O)c2cccc(C(F)(F)F)c2)cc1-c1cc(C)c2c(N)n[nH]c2n1 [Compound A, N-(3-(3-amino-4-methyl-1H-pyrazolo[3,4-b]pyridin-6-yl)-4-methylphenyl)-3-(trifluoromethyl)benzamide]",RTV (Relative Tumor Volume),"[3]; day 26, 30 mg/kg",3.40
same,T/C (Tumour Vs Control),"[3]; day 26, 30 mg/kg",54.89%
same,TGI (Tumor Growth Inhibition),"[3]; day 26, 30 mg/kg",45.11%
same,RTV (Relative Tumor Volume),"[3]; day 26, 100 mg/kg",3.09
same,T/C (Tumour Vs Control),"[3]; day 26, 100 mg/kg",47.80%
same,TGI (Tumor Growth Inhibition),"[3]; day 26, 100 mg/kg",52.20%
same,RTV (Relative Tumor Volume),"[3]; day 26, 300 mg/kg",4.74
same,T/C (Tumour Vs Control),"[3]; day 26, 300 mg/kg",85.40%
same,TGI (Tumor Growth Inhibition),"[3]; day 26, 300 mg/kg",14.60%
same,anti-tumour effect,"[3]; dosed at 30, 100 or 300 mg/kg, 26 days treatment, MDA-MB-231 xenograft",shows a plateau of its anti-tumour effect and is not able to achieve the same effect on inhibition of tumour growth
same,AUC,"[4]; day 7, 30 mg/kg p.o.",1280 ng·h/mL
same,AUC,"[4]; day 7, 100 mg/kg p.o.",4240 ng·h/mL
same,AUC,"[4]; day 7, 300 mg/kg p.o.",7920 ng·h/mL
same,fold less exposed than Compound 55,"[4]; plasma exposure at day 7, Compound A at 300 mg/kg p.o. (10 fold higher dosing)",3.9 fold
